This experiment concerns the target U. maydis IMPDH (Imp1) (Ustilago maydis, UniProt A0A0D1CRJ0, T408N). The experiment in a line: Inhibition of U. maydis IMPDH (NADH fluorescence assay). Format: biochemical. The note with it: negative decimal logarithm of the molar IC50 for 50% inhibition of the enzyme; read-out: pI50 (converted). How it is done: The activity, or the decrease or increase in activity, can also preferably be determined by means of the conversion of the substrate NAD^+ into NADH, where the lower, or inhibited, activity of the polypeptide according to the invention is determined with reference to a less sharp increase in fluorescence emitted by the smaller amounts of NADH formed (see also FIG. 1). NADH fluoresces more than NAD^+.
To this end, the polypeptide according to the invention is incubated at a suitable concentration, which is preferably between 0.1 and 20 ng/μl, preferably between 0.13 and 10 ng/μl, of the enzyme, with NAD^+ at a concentration of from 5 to 400 μM, preferably 10 to 100 μM, and IMP at a concentration of from 5 to 400 μM, preferably from 50 to 300 μM, at a suitable temperature. The IMP concentration is preferably in each case twice as high as the concentration of the substrate NAD^+. It must be borne in mind that substrate inhibition can be observed for both substrates, viz. NAD^+ and IMP, and the used concentrations of the two substrates should therefore be checked in this respect. The temperature may be in a range of from 8 to 37° C. The measurement is preferably carried out at from 10 to 30° C., room temperature is also suitable in particular. The reaction is carried out in a usual buffer (“assay buffer”) which can contain preferably for example 20 to 200 mM KCl, 1 to 5 mM DTE or DTT, 0.01 to 1% BSA, 0.01 to 0.1% Tween 20 and 2 to 10% glycerol and brought to a pH of 8, for example using 25 to 100 mM Tris buffer (see Example 2). […]
The formation of NADH in the course of the reaction is then monitored with reference to the fluorescence at an excitation wavelength of 360 nm and an emission wavelength of 465 nm. The increase in fluorescence in the presence of a chemical compound can then be compared with the increase in fluorescence in the absence of a chemical compound. […] The period within which the increase in fluorescence is measured can be varied. A slow increase in fluorescence can be observed over the course of several hours, until, after 5 to 10 hours, a plateau is reached (see also FIG. 3). As a rule, the fluorescence decreases thereafter. […]
The measurement can also be carried out in formats conventionally used for HTS or UHTS assays, for example in microtitre plates, into which for example a total volume of 5 to 50 μl is introduced per reaction or per well and the individual components are present in one of the above-stated final concentrations. […] The mixture is then incubated for example for up to 2 or 3 hours at a suitable temperature, and the increase in fluorescence is measured at an excitation wavelength of 360 nm and an emission wavelength of 460 nm. […]

Consider `CCCCCCCCCCCCCCCCOc1ccc(CCCC(=O)O)cc1` [Example 1], for which the IC50 was 25.1 µM.

Regarding `COC1=Cc2ccccc2C(=O)C1=O` [Example 2], the IC50 was 12.6 µM.

Turning to `CN1CCN(C)c2cc3nc4ccccc4nc3cc21` [Example 3], the IC50 is 10 µM. `c1coc(-c2oc3nc4c(-c5ccco5)c(-c5ccco5)oc4nc3c2-c2ccco2)c1` [Example 4]: the IC50 was 0.2 µM.

These data come from patent US7270977B2, “Polypeptides for identifying fungicidally active compounds” (priority 2001, dated 2007).
